Here are results for 6 molecules from ChEMBL document CHEMBL1201862, “PubChem BioAssay data set” (2004).

The structures appear in SMILES notation. Active and inactive are the calls of the source. Rule as the data show it, for most assays here: actives have a measured EC50 and inactives only a lower limit.

Assay [1] concerns Streptococcus sp. 'group A'. Description: Streptococcus pyogenes SK(-)GAS viability under kanamycin – luminescence, BacTiterGlo, confirmation, counter-screen for streptokinase expression inhibitor project, dose response (AID 1900). Format: functional, organism-based. In general terms: Counterscreens check selectivity or assay interference.
A further assay deals with Streptococcus. Description: GAS UMAA2166 growth inhibition – luminescence, BacTiterGlo, counter-screen for streptokinase expression inhibitor project, dose response (AID 1915).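 Also: potency for reduction of bacterial viability or growth.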 Format: functional, organism-based.
A short description of assay [2]: NIH3T3 cell viability loss – ATP luminescence, mouse fibroblasts, counter-screen, dose response (AID 2010).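 Also: cells exposed to compound for about 90 hours before reading.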 In kind it is functional, cell-based.
The test system of the next assay is Vero. Description: cells. Conditions: Chlorocebus sabaeus. In kind it is functional.
A short description of assay [3]: Trypanosoma cruzi growth suppression in host cells – NIH3T3 host cells, beta-gal luminescence, confirmation (AID 2044).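 Also: intracellular parasites grown in NIH/3T3 mouse fibroblasts as host cells; luminescent beta-galactosidase reporter signal from transgenic T. cruzi replicating inside host cells; inhibitors lower the luminescence signal.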 In kind it is functional, cell-based.
The target in the next assay is T1, Streptokinase A (Streptococcus pyogenes serotype M1, UniProt P10520).
T1 sequence (P10520 whole entry): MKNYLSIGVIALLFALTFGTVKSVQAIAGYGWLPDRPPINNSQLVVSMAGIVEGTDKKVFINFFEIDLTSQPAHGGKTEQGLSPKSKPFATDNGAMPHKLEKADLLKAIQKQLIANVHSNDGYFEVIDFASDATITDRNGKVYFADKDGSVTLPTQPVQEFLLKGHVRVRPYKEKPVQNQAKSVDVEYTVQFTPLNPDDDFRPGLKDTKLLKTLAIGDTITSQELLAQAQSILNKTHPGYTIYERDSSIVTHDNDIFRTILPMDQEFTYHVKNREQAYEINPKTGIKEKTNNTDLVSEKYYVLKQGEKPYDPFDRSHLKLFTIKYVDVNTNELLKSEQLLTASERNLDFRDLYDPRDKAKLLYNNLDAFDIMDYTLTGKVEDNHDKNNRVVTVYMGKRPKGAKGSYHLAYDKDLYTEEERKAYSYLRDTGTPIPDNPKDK
Description: viability-normalized secreted streptokinase activity reduction – plasminogen activation absorbance, OD405, dose response (AID 1914).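 Also: secreted streptokinase activity via plasminogen activation per viability signal from cell pellet.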 Format: functional, Streptococcus pyogenes M1 GAS.

Assay [4] addresses T2, Type-1 angiotensin II receptor (Homo sapiens, UniProt P30556).
T2 sequence (P30556 whole entry): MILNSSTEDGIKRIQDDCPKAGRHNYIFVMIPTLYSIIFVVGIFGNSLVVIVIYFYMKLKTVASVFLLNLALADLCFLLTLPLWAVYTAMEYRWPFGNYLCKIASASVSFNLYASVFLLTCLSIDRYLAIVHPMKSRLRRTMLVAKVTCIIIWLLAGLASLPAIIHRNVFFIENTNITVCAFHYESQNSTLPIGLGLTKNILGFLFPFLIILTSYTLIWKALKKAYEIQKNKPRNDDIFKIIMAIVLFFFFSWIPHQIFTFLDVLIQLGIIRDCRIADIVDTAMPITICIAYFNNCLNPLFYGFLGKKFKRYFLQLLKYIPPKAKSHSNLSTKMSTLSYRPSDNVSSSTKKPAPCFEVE
Description: antagonism of angiotensin II type 1 receptor – cell-based, uHTS hits, selectivity assay for APJ receptor antagonist project, dose response (AID 463214).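 Also: antagonist potency against angiotensin II stimulated AT1 response.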 In kind it is functional.

The target of another assay is Beta-galactosidase (Escherichia coli, UniProt Q8VNN2). The assay can be described thus: PubChem AID 485352. Format: functional.
Beta-galactosidase, sequence (Q8VNN2 whole entry): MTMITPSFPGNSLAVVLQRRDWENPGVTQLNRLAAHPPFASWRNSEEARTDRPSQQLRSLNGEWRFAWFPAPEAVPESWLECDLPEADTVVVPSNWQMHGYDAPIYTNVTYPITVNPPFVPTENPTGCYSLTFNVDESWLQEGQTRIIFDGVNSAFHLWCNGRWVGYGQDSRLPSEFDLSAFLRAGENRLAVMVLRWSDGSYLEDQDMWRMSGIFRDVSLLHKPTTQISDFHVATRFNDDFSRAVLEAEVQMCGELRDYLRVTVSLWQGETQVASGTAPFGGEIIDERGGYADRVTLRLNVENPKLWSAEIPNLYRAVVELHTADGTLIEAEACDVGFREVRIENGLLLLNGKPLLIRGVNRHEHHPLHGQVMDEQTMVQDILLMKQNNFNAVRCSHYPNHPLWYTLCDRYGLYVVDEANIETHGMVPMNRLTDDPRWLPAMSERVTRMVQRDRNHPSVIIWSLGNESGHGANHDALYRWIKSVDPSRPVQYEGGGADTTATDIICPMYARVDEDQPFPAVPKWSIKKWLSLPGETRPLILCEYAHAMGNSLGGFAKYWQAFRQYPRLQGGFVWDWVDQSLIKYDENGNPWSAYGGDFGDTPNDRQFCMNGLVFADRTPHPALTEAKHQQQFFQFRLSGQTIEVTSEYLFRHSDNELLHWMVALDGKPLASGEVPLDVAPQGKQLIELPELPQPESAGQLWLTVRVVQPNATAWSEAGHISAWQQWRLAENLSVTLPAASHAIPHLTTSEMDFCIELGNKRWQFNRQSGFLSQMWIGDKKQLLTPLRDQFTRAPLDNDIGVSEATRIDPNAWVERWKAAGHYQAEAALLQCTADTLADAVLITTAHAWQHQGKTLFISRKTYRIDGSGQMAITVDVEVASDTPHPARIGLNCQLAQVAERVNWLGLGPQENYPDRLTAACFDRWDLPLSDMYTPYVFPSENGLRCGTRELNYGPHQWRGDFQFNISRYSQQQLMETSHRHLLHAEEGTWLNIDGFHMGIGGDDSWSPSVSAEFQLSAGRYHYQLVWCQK
Assay [5] can be described thus: microbe, parasite or virus in culture. Format: functional. The following applies: Mycobacterium tuberculosis.
Assay [6] has as its target T3, Heat shock factor protein 1 (Mus musculus, UniProt P38532).
T3 sequence (P38532 whole entry): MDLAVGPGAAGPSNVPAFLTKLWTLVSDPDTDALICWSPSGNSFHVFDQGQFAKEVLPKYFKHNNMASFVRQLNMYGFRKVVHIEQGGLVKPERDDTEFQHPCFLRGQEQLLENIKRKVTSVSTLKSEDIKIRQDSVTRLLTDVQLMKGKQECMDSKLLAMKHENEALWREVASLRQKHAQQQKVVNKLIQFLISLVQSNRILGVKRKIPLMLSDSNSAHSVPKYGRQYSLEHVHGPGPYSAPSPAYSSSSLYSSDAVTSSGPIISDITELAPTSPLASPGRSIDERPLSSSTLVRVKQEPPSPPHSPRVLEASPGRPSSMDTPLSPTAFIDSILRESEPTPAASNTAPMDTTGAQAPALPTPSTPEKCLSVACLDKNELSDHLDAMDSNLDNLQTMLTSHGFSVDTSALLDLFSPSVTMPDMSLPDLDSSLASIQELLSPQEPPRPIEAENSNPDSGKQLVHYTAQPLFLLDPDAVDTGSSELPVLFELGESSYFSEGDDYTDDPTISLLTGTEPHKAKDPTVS
Description: enhancement of HSF1-driven luciferase signal – cell-based, NIH3T3, luminescence, dose retest, confirmation (AID 435004).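 Also: stress induced by proteasome inhibitor MG132 added 30 min after compound; luciferase reporter driven by HSF1 response element in NIH3T3 cells; actives raise luminescence as potentiators of the MG132 stress response.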 Format: functional.

Another assay concerns the target Nonstructural protein 1 (Influenza A virus, UniProt Q194T2). In kind it is functional, Influenza A virus (A/California/07/2009(H1N1)).
A further assay deals with T4, Protein RecA (Mycobacterium tuberculosis, UniProt P9WHJ3).
T4 sequence (P9WHJ3 whole entry): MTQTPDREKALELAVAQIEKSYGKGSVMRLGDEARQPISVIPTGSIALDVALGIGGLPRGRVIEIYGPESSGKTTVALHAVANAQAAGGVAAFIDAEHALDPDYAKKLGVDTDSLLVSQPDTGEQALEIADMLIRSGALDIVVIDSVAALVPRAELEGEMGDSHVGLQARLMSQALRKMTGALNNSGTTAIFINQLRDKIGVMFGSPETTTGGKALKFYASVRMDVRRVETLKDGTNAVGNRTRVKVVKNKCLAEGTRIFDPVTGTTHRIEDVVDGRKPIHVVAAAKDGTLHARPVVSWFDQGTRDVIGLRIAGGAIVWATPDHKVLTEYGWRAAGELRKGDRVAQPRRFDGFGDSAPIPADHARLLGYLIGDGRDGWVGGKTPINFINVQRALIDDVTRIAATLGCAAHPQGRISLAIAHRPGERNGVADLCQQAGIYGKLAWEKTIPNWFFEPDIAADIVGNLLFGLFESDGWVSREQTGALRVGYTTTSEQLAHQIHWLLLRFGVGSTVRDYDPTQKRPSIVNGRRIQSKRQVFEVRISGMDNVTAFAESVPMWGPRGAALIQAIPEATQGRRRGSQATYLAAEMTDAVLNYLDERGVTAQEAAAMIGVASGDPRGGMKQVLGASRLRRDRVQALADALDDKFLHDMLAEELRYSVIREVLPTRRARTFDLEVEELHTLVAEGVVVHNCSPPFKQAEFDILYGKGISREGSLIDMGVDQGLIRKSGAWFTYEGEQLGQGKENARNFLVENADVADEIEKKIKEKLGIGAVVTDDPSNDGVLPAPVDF
Description: Fluorescence Cell-Free Homogeneous Dose Retest to Identify Inhibitors of RecA-Intein Splicing Activity. [Related pubchem assays (depositor defined):AID2097, AID2223, AID489010, AID492950]. In kind it is functional.

Assay [7] has as its target T5, Replicative DNA helicase DnaB (Mycobacterium tuberculosis, UniProt P9WMR3).
T5 sequence (P9WMR3 whole entry): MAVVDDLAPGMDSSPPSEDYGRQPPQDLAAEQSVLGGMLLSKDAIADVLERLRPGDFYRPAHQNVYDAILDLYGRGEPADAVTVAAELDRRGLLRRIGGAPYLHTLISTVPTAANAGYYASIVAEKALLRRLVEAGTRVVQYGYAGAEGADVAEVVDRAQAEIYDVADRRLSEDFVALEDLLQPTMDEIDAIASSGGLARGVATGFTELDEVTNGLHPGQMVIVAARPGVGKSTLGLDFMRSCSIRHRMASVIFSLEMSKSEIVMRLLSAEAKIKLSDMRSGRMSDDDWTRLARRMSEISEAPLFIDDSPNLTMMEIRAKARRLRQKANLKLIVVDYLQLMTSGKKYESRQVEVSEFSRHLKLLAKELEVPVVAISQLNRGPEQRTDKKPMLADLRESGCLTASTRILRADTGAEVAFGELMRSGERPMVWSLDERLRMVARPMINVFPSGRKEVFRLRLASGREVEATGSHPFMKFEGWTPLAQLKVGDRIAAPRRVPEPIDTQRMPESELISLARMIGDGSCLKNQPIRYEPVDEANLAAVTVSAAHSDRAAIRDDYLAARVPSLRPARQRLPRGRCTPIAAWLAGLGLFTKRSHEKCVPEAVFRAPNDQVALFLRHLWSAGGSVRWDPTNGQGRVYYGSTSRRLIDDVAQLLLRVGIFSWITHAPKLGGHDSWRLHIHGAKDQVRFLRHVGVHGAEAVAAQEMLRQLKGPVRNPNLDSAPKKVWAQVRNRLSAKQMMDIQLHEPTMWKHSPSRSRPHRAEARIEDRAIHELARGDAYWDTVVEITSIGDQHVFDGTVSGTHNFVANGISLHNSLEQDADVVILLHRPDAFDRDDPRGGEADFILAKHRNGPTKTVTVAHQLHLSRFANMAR
The assay can be described thus: DnaB intein splicing inhibitors, dose response, biochemical, cell-free fluorescence (AID 449749). In kind it is functional.

A short description of assay [8]: Luminescence Cell-Based Dose Response HTS to Identify Inhibitors of 5'UTR Stem-Loop Driven Prion Protein mRNA Translation in H4 Neuroglioblastoma Cells. [Related pubchem assays: 1827 (Project Summary), 1813 (Primary HTS)]. In kind it is functional.
Assay [9] in a line: luciferase reporter signal suppression in cells – H4 neuroglioma cells, luminescence, dose response (AID 1990). Format: functional, cell-based. On the technique in general: A reporter such as luciferase makes a cellular process visible.
The next assay concerns INS1. Description: INS-1E survival protection against cytokine death – cell-based, luminescence, retest, dose response (AID 449756).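 Also: cell death triggered by IL-1 beta plus TNF-alpha plus IFN-gamma mixture; protective hits raise ATP signal compared with cytokine alone wells.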 Format: functional. Conditions: Rattus norvegicus.
A short description of assay [10]: alpha-synuclein stem-loop luciferase translation blockers – H4 neuroglioma cells, luminescence, confirmation (AID 1988). Format: functional, cell-based.
Assay [11] is described as follows: cells. Format: functional, cell-based.
Assay [12] can be described thus: cells. In kind it is functional, cell-based. The source holds these as a separate data set.

Nonstructural protein 1, sequence (Q194T2 whole entry): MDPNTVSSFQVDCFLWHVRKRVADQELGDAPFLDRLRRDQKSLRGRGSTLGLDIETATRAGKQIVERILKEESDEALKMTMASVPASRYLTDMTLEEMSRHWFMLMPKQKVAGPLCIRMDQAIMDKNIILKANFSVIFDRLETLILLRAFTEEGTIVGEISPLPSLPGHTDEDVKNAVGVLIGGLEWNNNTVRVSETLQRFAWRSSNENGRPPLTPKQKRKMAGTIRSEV

In the case of `COc1ccc(OC)c(/C=C/c2ccc3cccc(O)c3n2)c1`, the concentration giving a half-maximal response (EC50) (as a rule, the concentration that produces a half-maximal response) in assay [1] is 0.323 µM (active); with Streptococcus, 10.7 µM (active); in assay [2], > 30 µM (not active); in assay [3] it was 2.07 µM (active); on Streptokinase A it was > 150 µM (not active). For the same molecule, the CC50 with Vero was 9.5 µM (active).

For `CCN(CC)S(=O)(=O)c1ccc2oc(SCC(=O)Nc3cc(C)on3)nc2c1`, the IC50 (as a rule, the concentration at which inhibition is half-maximal) in assay [4] is on record as > 40 µM (not active). In addition, the EC50 at Beta-galactosidase is > 40 µM (inactive); in assay [2], 5.9 µM (active); in [3] it was > 30 µM (not active). For the same molecule, the CC50 in [5] was 11.6 µM (active).

In the case of `CCc1cc2c(=O)[nH]c(-c3ccccn3)nc2s1`, the concentration for half-maximal inhibition (IC50) was 2.91 µM (active) in [4] and 14.3 µM (active) on Nonstructural protein 1. The concentration for a half-maximal effect (EC50) is 12.9 µM (active) in [6] and > 40 µM (inactive) at Beta-galactosidase.

As to `CC(C)OC(=O)CN1C(=O)C(=O)c2ccccc21`, the 50% inhibitory concentration (IC50) in assay [4] is 5.32 µM (active). Further, the results for the EC50 at Beta-galactosidase and at Protein RecA were > 40 µM (inactive) and 8.52 µM (active), respectively. Further, in [7], the AC50 – broadly, the concentration giving half of the maximal activity seen – is 14.3 µM (active).

For `O=C(N/N=C(\c1ccccc1)c1ccccn1)c1ccccc1Cl`, the EC50 in assay [8] was 4.49 µM (active); in assay [9], 2.03 µM (active); in assay [10], 0.472 µM (active); in [2], 5.45 µM (active); in “cells [11]”, > 350 µM (not active); in “cells [12]” it was 12.1 µM (active). Also, the half-maximal effective concentration (EC50) in [3] was 0.852 µM (active). Besides, the half-maximal activity concentration (AC50) with INS1 was 1.27 µM (active). Moreover, the results for the CC50 (in assay [5]; in the assay on Vero) were 5.75 µM (active) and 6.17 µM (active), respectively.

Consider `Cn1cccc1/C=C(/C#N)C(N)=S`, for which the IC50 in [4] was > 40 µM (not active). The EC50 at Beta-galactosidase is > 40 µM (inactive).
